Laboratory results taken from US9034574B2, “Agents for reversing epigenetic silencing of genes” (The Johns Hopkins University, priority 2006, dated 2015).
Read-outs that look alike come from different tables or passages of the source.

Experiments:
[1] = biological target: MeCP2_MBD binding to 5-mCpG containing DNA (Homo sapiens (Human), UniProt P51608); test: DNA-protein binding assay, MeCP2_MBD to methylated oligonucleotide; conditions: His-tagged MeCP2_MBD, read-out: MeCP2 Binding Inhibition (IC50 in μM)
Chain of MeCP2_MBD binding to 5-mCpG containing DNA (P51608 90-162): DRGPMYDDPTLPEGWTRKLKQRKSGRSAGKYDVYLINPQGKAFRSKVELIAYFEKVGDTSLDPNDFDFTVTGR
Experimental: (§1) To determine if the “lead” compounds directly interfere with MBD2 binding to ^5−m CpG containing DNA, each “lead” compound is tested for its ability to inhibit such binding using a DNA-protein binding assay. For this assay, a biotinylated and methylated oligonucleotide substrate is bound to a neutravidin-coated high binding capacity 96-well plate. His-tagged MBD2_MBD or MeCP2_MBD binds to the methylated oligonucleotide. An Anti-His-HRP conjugated antibody is used to detect bound protein. Introducing the “lead” compounds into the reaction mix at various concentrations provides a MBD2_MBD-DNA binding curve from which an IC50 is derived.
(§2) DNA binding assays using recombinant MBDs. […] After centrifugation in a microfuge, the soluble protein fraction, containing MBD2, was recovered. A similar approach was used for producing cloned recombinant MeCP2. […] After washing four times with binding buffer and drying wells, TMB is added to each well followed by 1 N HCl, and A450 is measured on a microplate reader. The IC50 for each “lead” compound is derived from the DNA-protein binding curve.

[2] = biological target: recombinant DNMT1 (Homo sapiens (Human), UniProt P26358); test: DNA methyltransferase activity assay with recombinant DNMT1; format: biochemical; conditions: for DNMT1 Inhibition (IC50 in μM): recombinant DNMT1
Chain of recombinant DNMT1 (P26358 whole entry): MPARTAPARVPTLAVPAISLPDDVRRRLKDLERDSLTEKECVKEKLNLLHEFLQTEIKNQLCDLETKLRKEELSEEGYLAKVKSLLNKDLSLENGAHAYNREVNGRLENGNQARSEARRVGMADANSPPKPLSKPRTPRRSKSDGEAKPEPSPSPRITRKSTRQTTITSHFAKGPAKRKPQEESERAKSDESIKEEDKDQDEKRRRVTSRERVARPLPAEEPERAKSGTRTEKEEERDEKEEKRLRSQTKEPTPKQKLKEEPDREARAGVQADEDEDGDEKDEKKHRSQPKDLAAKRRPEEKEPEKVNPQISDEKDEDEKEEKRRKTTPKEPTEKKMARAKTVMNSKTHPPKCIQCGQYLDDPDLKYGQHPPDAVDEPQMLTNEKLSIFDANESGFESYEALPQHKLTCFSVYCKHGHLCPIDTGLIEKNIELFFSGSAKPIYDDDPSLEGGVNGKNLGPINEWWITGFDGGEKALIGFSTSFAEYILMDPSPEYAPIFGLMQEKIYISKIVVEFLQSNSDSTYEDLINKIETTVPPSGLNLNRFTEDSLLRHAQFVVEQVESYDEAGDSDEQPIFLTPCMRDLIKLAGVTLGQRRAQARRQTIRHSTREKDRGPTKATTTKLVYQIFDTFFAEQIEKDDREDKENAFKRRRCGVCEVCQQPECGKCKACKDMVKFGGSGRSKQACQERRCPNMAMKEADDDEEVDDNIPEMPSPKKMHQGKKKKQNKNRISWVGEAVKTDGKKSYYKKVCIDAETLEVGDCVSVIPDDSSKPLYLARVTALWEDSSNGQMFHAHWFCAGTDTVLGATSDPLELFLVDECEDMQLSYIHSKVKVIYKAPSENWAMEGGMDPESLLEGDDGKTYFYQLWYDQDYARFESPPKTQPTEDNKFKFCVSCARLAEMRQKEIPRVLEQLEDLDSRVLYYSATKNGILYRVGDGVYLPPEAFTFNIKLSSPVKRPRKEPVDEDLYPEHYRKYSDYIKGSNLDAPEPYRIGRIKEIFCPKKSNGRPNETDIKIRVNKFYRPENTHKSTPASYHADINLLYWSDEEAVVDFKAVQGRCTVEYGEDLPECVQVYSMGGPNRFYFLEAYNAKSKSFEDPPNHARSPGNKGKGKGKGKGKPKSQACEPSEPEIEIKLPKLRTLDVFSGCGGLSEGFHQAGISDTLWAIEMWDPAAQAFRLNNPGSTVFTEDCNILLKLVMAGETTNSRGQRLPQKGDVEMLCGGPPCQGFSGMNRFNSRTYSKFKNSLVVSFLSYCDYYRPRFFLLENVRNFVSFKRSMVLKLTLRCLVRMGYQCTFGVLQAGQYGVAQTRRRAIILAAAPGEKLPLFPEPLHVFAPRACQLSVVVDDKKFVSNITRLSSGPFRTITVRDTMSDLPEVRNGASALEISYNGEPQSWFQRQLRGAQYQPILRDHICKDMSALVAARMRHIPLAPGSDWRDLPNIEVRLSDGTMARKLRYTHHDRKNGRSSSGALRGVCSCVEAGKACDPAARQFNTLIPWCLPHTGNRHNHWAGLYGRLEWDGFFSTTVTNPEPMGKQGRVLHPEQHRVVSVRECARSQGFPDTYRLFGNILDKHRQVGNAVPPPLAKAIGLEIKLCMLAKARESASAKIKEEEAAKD
Excerpt: (§3) The outputs of these experiments were Ki's for each of the DNMT enzymes. When considered along with potency and efficacy data from the screening assays, the results of analyses of “lead” compounds for interference with MBD2 binding to ^5−m CpG-containing DNA, for direct binding to ^5−mCpG-containing DNA, and for inhibition of DNMTs allow prioritization of “lead” compounds. Ideally, “lead” compounds that activate expression from GSTP1 alleles with CpG island hypermethylation at sub-μM concentrations, target MBD2 directly, and fail to inhibit DNMTs, are high-priority “lead” compounds.
DNMT assays using recombinant DNMT1, DNMT3a, and DNMT3b. To produce recombinant DNMT1, full-length DNMT1 cDNA was amplified in two segments by RT-PCR from human brain poly A+ RNA (BD Clontech). Amplification of the upstream segment was performed using the PCR primers (5′-[…]-3′ (SEQ ID NO:4) and 5′-[…]-3′ (SEQ ID NO:5)), and amplification of the downstream segment was performed using the PCR primers (5′-[…]-3′ (SEQ ID NO:6) and 5′-[…]-3′ (SEQ ID NO:7)). The upstream and downstream segments were subcloned into the pCMVscript® vector (Stratagene), and assembled using an internal BstEII site that is common to both segments to create pCMVscript-DNMT1. PCR primers containing EcoRI and KpnI sites (5′-GAATTCCCGGCGCGTACCG-3′ (SEQ ID NO:8) and 5′-[…]-3′ (SEQ ID NO:9)) were used to amplify the DNMT1 coding sequence from pCMVscript-DNMT1. […] This pFB6H-DNMT1 construct was used to transform DH10Bac™ E. coli competent cells (Invitrogen) to generate a recombinant expression bacmid via site-specific transposition. The DNMT1 expression bacmid was transfected into Sf9 insect cells to produce recombinant DNMT1 baculovirus particles, which were subsequently used to infect additional Sf9 cells (1 MOI, 48 hours) for protein production. Recombinant His(6)-(SEQ ID NO:21)-DNMT1 was recovered by Ni2+ affinity chromatography. After lysis in 50 mM Na2HPO4 pH 7.6, 10 mM imidazole, 500 mM NaCl, 1% Igepal CA-630, 10% glycerol, and 1× Complete™ Protease Inhibitor (Roche) by two freeze-thaw cycles, His(6)-(SEQ ID NO:21)-DNMT1 was bound to Ni-NTA agarose (Qiagen) for 1.5 hours at 4° C. The supernatant was removed, and the beads were washed twice with 50 mM Na2HPO4 pH 7.6, 20 mM imidazole, 500 mM NaCl, 10% glycerol, and 1× Complete™ Protease Inhibitor to remove contaminating proteins. The beads were then washed twice with 50 mM Na2HPO4 pH 7.6, 10 mM NaCl, 10% glycerol, and 1× Complete™ Protease Inhibitor to remove excess salt. His(6)-(SEQ ID NO:21)-DNMT1 was eluted from the Ni-NTA agarose by adding 50 mM Na2HPO4 pH 7.6, 250 mM imidazole, 10 mM NaCl, 10% glycerol, and 1× Complete™ Protease Inhibitor. Spin dialysis was used to concentrate the protein and exchange the buffer 50 mM Na2HPO4 pH 7.6, 10 mM NaCl, 1 mM EDTA, 1 mM DTT, 20% glycerol, and 1× Complete™ Protease Inhibitor. Protein concentration was determined using the BCA assay (Pierce). Recombinant DNMT1 was stored at −80° C. until further use.
DNA methyltransferase activity assays were performed by combining 100 nM His(6)-(SEQ ID NO:21)-DNMT with 5′-biotinylated synthetic hemi-methylated or unmethylated oligonucleotide substrate containing 1 μM CG (Top Strand 5′-[…]-3′ (SEQ ID NO:18), Bottom Strand 5′-[…]-3′ (SEQ ID NO:19)) and 1 μM S-adenosyl-L-[methyl-^3H]Methionine™ (Amersham TRK581 60-85 Ci/mmol). After incubation at 37° C. for 30 minutes, reactions were stopped by adding one volume of 10 mM cold S-adenosyl-L-Methionine™ (Sigma). To purify the oligonucleotides, reactions will be added to a SAm^2® 96 Biotin Capture Plate (Promega). The plate was washed 7 times with PBS+2M NaCl and 3 times with dH20 to remove His(6)-(SEQ ID NO:21)-DNMT1 and S-adenosyl-L-methionine.

[3] = biological target: MBD2_MBD binding to 5-mCpG containing DNA (Homo sapiens (Human), UniProt Q9UBB5); test: DNA-protein binding assay, MBD2_MBD to methylated oligonucleotide; conditions: His-tagged MBD2_MBD
Chain of MBD2_MBD binding to 5-mCpG containing DNA (Q9UBB5 145-213): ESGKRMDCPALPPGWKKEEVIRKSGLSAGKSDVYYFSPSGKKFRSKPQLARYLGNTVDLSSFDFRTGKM
Experimental: as §1, §2

[4] = system: breast ca; conditions: cited from earlier work
[5] = system: ovarian ca; conditions: cited from earlier work
[6] = system: colon ca; conditions: cited from earlier work
[7] = system: melanoma; conditions: cited from earlier work
[8] = system: lung ca; conditions: n 15, 200-600 mg/M^2 over 1 day iv; cited from earlier work
[9] = system: prostate ca; conditions: n 14, 225 mg/M^2 over 1 day iv; cited from earlier work
[10] = system: mesothelioma; conditions: cited from earlier work
[11] = biological target: recombinant DNMT3a (Homo sapiens (Human), UniProt Q9Y6K1); test: DNA methyltransferase activity assay with recombinant DNMT3a; format: biochemical; conditions: read-out: Ki for inhibition of DNMT3a
Chain of recombinant DNMT3a (Q9Y6K1 whole entry, looked up): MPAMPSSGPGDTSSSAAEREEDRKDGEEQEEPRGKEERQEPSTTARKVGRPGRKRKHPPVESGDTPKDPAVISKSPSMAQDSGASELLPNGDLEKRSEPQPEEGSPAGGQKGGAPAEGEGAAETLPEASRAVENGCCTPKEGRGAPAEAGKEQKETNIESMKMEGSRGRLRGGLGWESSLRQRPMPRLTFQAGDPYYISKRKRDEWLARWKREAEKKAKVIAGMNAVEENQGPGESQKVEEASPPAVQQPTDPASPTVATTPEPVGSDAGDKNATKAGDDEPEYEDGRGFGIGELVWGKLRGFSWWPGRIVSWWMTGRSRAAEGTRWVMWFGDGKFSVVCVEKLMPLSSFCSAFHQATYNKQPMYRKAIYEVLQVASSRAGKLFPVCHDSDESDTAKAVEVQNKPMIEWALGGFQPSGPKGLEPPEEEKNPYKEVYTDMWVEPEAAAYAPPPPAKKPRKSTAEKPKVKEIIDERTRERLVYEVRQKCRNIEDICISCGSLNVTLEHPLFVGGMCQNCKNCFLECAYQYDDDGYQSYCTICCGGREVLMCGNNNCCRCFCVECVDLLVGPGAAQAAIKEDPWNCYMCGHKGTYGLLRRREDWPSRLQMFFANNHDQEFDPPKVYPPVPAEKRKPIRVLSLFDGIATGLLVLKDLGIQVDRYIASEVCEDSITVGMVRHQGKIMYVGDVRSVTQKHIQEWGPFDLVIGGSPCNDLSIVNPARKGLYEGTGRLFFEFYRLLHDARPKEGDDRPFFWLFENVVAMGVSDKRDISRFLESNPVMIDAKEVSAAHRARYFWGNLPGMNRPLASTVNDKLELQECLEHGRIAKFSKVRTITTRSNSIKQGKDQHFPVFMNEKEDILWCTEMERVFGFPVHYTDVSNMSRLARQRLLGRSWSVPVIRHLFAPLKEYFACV
Excerpt: as §3
His(6)-(SEQ ID NO:21)-DNMT3a and His(6)-(SEQ ID NO:21)-DNM3b2 were expressed and purified in Sf9 cells as described above with the following modifications. […]
DNA methyltransferase activity assays were performed by combining 100 nM His(6)-(SEQ ID NO:21)-DNMT with 5′-biotinylated synthetic hemi-methylated or unmethylated oligonucleotide substrate containing 1 μM CG (Top Strand 5′-[…]-3′ (SEQ ID NO:18), Bottom Strand 5′-[…]-3′ (SEQ ID NO:19)) and 1 μM S-adenosyl-L-[methyl-^3H]Methionine™ (Amersham TRK581 60-85 Ci/mmol). […] After drying the plate, 30 μl Microscint-PS™ scintillation fluid (Packard) was added to each well, and tritium was quantitated using the TopCount™ NXT liquid scintillation counter (Packard). […]

[12] = n 4, 275-850 mg/M^2 over 10 days sq

Compound | IC50 [1] [µM] | DNMT1 Inhibition (IC50 in μM) [2] | other results
c1ccc(Nc2nc(-c3ccccn3)cs2)nc1 [(I)] | 10.5 | – | –
Oc1cccc(Nc2nc(-c3ccccn3)cs2)c1 [(II)] | > 200 | No Inhibition | –
Cn1c2ccccc2n2cc(-c3ccc([N+](=O)[O-])cc3)nc12 [(III)] | > 200 | No Inhibition | –
COc1ccccc1-c1nc(-c2cccc([N+](=O)[O-])c2)no1 [(X)] | > 200 | No Inhibition | –
COc1ccc([N+](=O)[O-])cc1C1NN=C(c2ccccc2)S1 (stereo not drawn) [(XIX)] | – | No Inhibition | MBD2 Binding Inhibition (IC50 in μM) [3]: In- conclusive
Oc1ccc(C2NN=C(c3ccccc3)S2)cc1 (stereo not drawn) [(XVII)] | 16.9 | No Inhibition | –
COc1cc(O)cc(Br)c1/C=N/Nc1nc2ccccc2s1 [(XVIII)] | > 200 | No Inhibition | –
OC1(C(F)(F)F)CC(c2ccccc2)=NN1C(=S)c1ccccc1 (stereo not drawn) [(XX)] | > 200 | No Inhibition | –
Clc1ccc(C2NN=C(c3ccccc3)S2)cc1 (stereo not drawn) [(XXI)] | 33.9 | No Inhibition | –
Oc1ccc2ccccc2c1C1NN=C(c2ccccc2)S1 (stereo not drawn) [(XXII)] | 0.61 | No Inhibition | –
Nc1cccc(-c2nnc(-c3ccccc3)o2)c1 [(XXIII)] | 8.59 | No Inhibition | –
COc1ccc(NC(=O)Nc2cccc3cccnc23)cc1 [(XXIV)] | 2.81 | – | –
CCOc1ccc(Nc2nc(-c3ccccn3)cs2)cc1 [(XXV)] | > 200 | – | –
Nc1ncn([C@@H]2O[C@H](CO)[C@@H](O)[C@H]2O)c(=O)n1 [Compound 5-aza-C, 5-az-cytidine] | – | – | % Response ([4]; 1.6 mg/kg over 10 days iv): 17%; % Response [4, 12]: 25%; % Response ([4]; n 11, 300-700 mg/M^2 over 8 days iv): 63%; % Response ([4]; n 31, 600 mg/M^2 over 10 days iv): 6%; % Response [5, 12]: 25%; % Response ([6]; n 4, 275-850 mg/M^2 over 8 days sq): 0%; % Response ([6]; n 6, 300-700 mg/M^2 over 10 days iv): 33%; % Response ([6]; n 27, dose not given): 4%; % Response ([7]; n 5, 300-700 mg/M^2 over 8 days iv): 40%
Nc1ncn([C@H]2C[C@H](O)[C@@H](CO)O2)c(=O)n1 [Compound 5-aza-dC, 5-aza-deoxycytidine] | – | – | % Response ([5]; n 24, 225 mg/M^2 over 10 days iv): 8%; % Response ([6]; n 42, 225 mg/M^2 over 1 day iv): 0%; % Response [8]: 20%; % Response [9]: 16%; % Response ([7]; n 18, 225 mg/M^2 over 1 day iv): 0%
NC1=NCN([C@@H]2O[C@H](CO)[C@@H](O)[C@H]2O)C(=O)N1 [dh-5-aza-C] | – | – | % Response ([7]; n 40, 5 g/M^2 over 1 day cl): 20%; % Response ([10]; n 29, 1500 mg/M^2 over 5 days cl): 17%; % Response ([10]; n 41, 1500 mg/M^2 over 5 days cl): 17%
CCN(CC)CCNC(=O)c1ccc(N)cc1 [procainamide, reference compound] | – | – | Ki ([2]; mixed mechanism, read-out: Ki for inhibition of DNMT1): 7.2 µM; Ki [11]: 1400 µM
